Assay results from US7521472B2, “Crystal of two-ring heterocyclic sulfonamide compound” (Eisai R&D Management Co., Ltd., priority 2004, dated 2009).

Columns and labels:
Format in all cases: physicochemical
[1] = Solubility of α-type and β-type crystals in Britton-Robinson buffers (I=0.3); settings: for Solvent amount (ml) required to solve 1 g of compound (1): 25° C. within 30 minutes
Procedure: (§1) The results are shown in Tables 5 to 8. • (1) Test method:
(§2) The solubility in organic solvents and buffer solutions (Britton-Robinson Buffer: ionic strength (I)=0.3) was examined.
(§3) Specifically, according to the method described in USP 25 (U.S. PHARMACOPEIA 25(USP25), p 8, General Notices, Solubility), crystalline N-(3-chloro-1H-indol-7-yl)-4-sulfamoylbenzenesulfonamide was evaluated in terms of solubility in various organic solvents and Britton-Robinson buffers (pH 3, 5, 7, 9, and 11; I=0.3). The amount of each solvent was recorded that was required to solve a 10-mg sample of (N-(3-chloro-1H-indol-7-yl)-4-sulfamoylbenzenesulfonamide) at 25° C. within 30 minutes. In this study, the container was vigorously shaken for 30 seconds every 5 minutes, and the solubility was visually checked. • (2) Results: […]

[2] = Solubility of α-type and β-type crystals in organic solvents and water (USP 25 method); settings: for Solvent amount (ml) required to solve 1 g of compound (1): 25° C. within 30 minutes
Procedure: as §1, §2, §3

[3] = Physical properties of the β-type crystal (crystal form stability, hygroscopicity)
[4] = Britton-Robinson Buffer pH 3, I=0.3
[5] = Britton-Robinson Buffer pH 5, I=0.3
[6] = Britton-Robinson Buffer pH 7, I=0.3
[7] = Britton-Robinson Buffer pH 9, I=0.3
[8] = Britton-Robinson Buffer pH 11, I=0.3

Solvent amount (ml) required to solve 1 g of compound (1) [1, 4] [mL] | Solvent amount (ml) required to solve 1 g of compound (1) [1, 5] [mL] | Solvent amount (ml) required to solve 1 g of compound (1) [1, 6] [mL] | Solvent amount (ml) required to solve 1 g of compound (1) [1, 7] [mL] | Solvent amount (ml) required to solve 1 g of compound (1) [1, 8] [mL] | Solvent amount (ml) required to solve 1 g of compound (1) ([2]; 1-octanol) [mL] | Solvent amount (ml) required to solve 1 g of compound (1) ([2]; Acetone) [mL] | Solvent amount (ml) required to solve 1 g of compound (1) ([2]; Acetonitrile) [mL] | Solvent amount (ml) required to solve 1 g of compound (1) ([2]; Ethanol) [mL] | Solvent amount (ml) required to solve 1 g of compound (1) ([2]; Ethyl acetate) [mL] | Solvent amount (ml) required to solve 1 g of compound (1) ([2]; Heptane) [mL] | Solvent amount (ml) required to solve 1 g of compound (1) ([2]; Isopropylether) [mL] | Solvent amount (ml) required to solve 1 g of compound (1) ([2]; Methanol) [mL] | Solvent amount (ml) required to solve 1 g of compound (1) ([2]; N,N-dimethylformamide) [mL] | Solvent amount (ml) required to solve 1 g of compound (1) ([2]; Water) [mL] | solubility in the buffer solution compared with the α-type crystal ([1]; Britton-Robinson Buffer, ionic strength 0.3) | hygroscopicity [3] | stability of the crystal form ([3]; transformation into other crystal forms or amorphous forms) | solubility in various organic solvents in comparison with the α-type crystal ([2]; for example, ethanol, ethyl acetate) | Structure (SMILES)
>10000 | >10000 | >10000 | >10000 | 993 | >10000 | 21 | 97 | 1194 | 1090 | >10000 | >10000 | 100.4 | 9.6 | >10000 | – | – | – | – | NS(=O)(=O)c1ccc(S(=O)(=O)Nc2cccc3c(Cl)c[nH]c23)cc1 [compound (1) (α-type crystal), N-(3-chloro-1H-indol-7-yl)-4-sulfamoylbenzenesulfonamide, reference compound]
>10000 | >10000 | >10000 | >10000 | 553 | >10000 | 14 | 74 | 373 | 322 | >10000 | >10000 | 60 | 6 | >10000 | higher solubility | non hygroscopicity | stable | high solubility | NS(=O)(=O)c1ccc(S(=O)(=O)Nc2cccc3c(Cl)c[nH]c23)cc1 [compound (1) (β-type crystal), N-(3-chloro-1H-indol-7-yl)-4-sulfamoylbenzenesulfonamide]
